In patent publication US20090093469A1, “Phenylaminopropanol Derivatives and Methods of Their Use” (WYETH, priority 2004, published 2009):
Counter-ions that a name gives are not always drawn.

Each molecule was assayed against T1, hNET (Homo sapiens, UniProt P23975) (assay: Norepinephrine (NE) uptake assay in MDCK-Net6 cells stably transfected with human hNET). Conditions: MDCK-Net6, read-out: % Inhibition @ 1 μM (hNET).
T1 construct: expressed in transfected cells
Format: cell-based
Method: Cells were plated at 300,000/T75 flask and cells were split twice weekly. […] Cells were plated at 250,000 cells/T75 flask and split twice weekly.
On day 1, cells were plated at 3,000 cells/well in growth medium and maintained in a cell incubator (37° C., 5% CO2). On day 2, growth medium was replaced with 200 μl of assay buffer (25 mM HEPES; 120 mM NaCl; 5 mM KCl; 2.5 mM CaCl2; 1.2 mM MgSO4; 2 mg/ml glucose (pH 7.4, 37° C.)) containing 0.2 mg/ml ascorbic acid and 10 μM pargyline. Plates containing cells with 200 μl of assay buffer were equilibrated for 10 minutes at 37° C. prior to addition of compounds. A stock solution of desipramine was prepared in DMSO (10 mM) and delivered to triplicate wells containing cells for a final test concentration of 1 μM. Data from these wells were used to define non-specific NE uptake (minimum NE uptake). Test compounds were prepared in DMSO (10 mM) and diluted in assay buffer according to test range (1 to 10,000 nM). Twenty-five microliters of assay buffer (maximum NE uptake) or test compound were added directly to triplicate wells containing cells in 200 μl of assay buffer. The cells in assay buffer with test compounds were incubated for 20 minutes at 37° C. To initiate the NE uptake, [^3H]NE diluted in assay buffer (120 nM final assay concentration) was delivered in 25 μl aliquots to each well and the plates were incubated for 5 minutes (37° C.). The reaction was terminated by decanting the supernatant from the plate. The plates containing cells were washed twice with 200 μl assay buffer (37° C.) to remove free radioligand. The plates were then inverted, left to dry for 2 minutes, then reinverted and air-dried for an additional 10 minutes. The cells were lysed in 25 μl of 0.25 N NaOH solution (4° C.), placed on a shake table and vigorously shaken for 5 minutes. After cell lysis, 75 μl of scintillation cocktail was added to each well and the plates were sealed with film tape. The plates were returned to the shake table and vigorously shaken for a minimum of 10 minutes to ensure adequate partitioning of organic and aqueous solutions. The plates were counted in a Wallac Microbeta counter (PerkinElmer) to collect the raw cpm data.
For each experiment, a data stream of cpm values collected from the Wallac Microbeta counter was downloaded to a Microsoft Excel statistical application program. Calculations of EC50 values were made using the transformed-both-sides logistic dose response program written by Wyeth Biometrics Department.

T1 sequence (P23975 whole entry): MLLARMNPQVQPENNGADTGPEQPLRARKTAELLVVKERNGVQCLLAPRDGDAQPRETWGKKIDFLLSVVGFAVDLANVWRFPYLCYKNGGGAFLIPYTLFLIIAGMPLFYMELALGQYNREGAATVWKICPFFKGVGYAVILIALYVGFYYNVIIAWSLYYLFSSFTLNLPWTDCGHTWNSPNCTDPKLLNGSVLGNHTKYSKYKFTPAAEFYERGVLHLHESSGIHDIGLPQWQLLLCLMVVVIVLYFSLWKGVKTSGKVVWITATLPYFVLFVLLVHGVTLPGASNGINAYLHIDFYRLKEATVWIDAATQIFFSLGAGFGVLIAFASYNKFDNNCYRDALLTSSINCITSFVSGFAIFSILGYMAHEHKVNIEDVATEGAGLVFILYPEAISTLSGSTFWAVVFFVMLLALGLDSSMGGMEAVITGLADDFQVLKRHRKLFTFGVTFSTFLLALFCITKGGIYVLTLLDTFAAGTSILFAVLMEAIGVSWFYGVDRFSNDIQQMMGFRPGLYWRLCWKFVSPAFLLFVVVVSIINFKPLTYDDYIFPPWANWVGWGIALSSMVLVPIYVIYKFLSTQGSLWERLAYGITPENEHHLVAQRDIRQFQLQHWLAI

Structure (SMILES) | inhibition at 1 µM [%]
CNC[C@@H](O)[C@H](c1ccccc1)n1c(=O)n(C(C)C)c2cccc(F)c21 [Example 201, 4-Fluoro-3-(2-hydroxy-3-methylamino-1-phenyl-propyl)-1-isopropyl-1,3-dihydro-benzimidazol-2-one hydrochloride] | 98.8
CNC[C@@H](O)[C@H](c1cccc(F)c1)n1ccc2ccc(F)cc21 [Example 133, (1S,2R)-1-(6-fluoro-1H-indol-1-yl)-1-(3-fluorophenyl)-3-(methylamino)propan-2-ol hydrochloride] | 96.4
CNC[C@@H](O)[C@H](c1cccc(OC)c1)n1ccc2ccccc21 [Example 69, (1S,2R)-1-(1H-indol-1-yl)-1-(3-methoxyphenyl)-3-(methylamino)propan-2-ol hydrochloride] | 87.5
CNC[C@@H](O)[C@H](c1cccc(F)c1)n1ccc2cccc(Br)c21 [Example 135, (1S,2R)-1-(7-bromo-1H-indol-1-yl)-1-(3-fluorophenyl)-3-(methylamino)propan-2-ol hydrochloride] | 99.5
CNC[C@@H](O)[C@H](c1ccc(Cl)cc1)n1ccc2ccccc21 [Example 34, (1S,2R)-1-(4-chlorophenyl)-1-(1H-indol-1-yl)-3-(methylamino)propan-2-ol hydrochloride] | 78.4
CNC[C@H](O)[C@@H](c1ccccc1C)n1ccc2ccccc21 (single isomer, unassigned) [Example 54, hydrochloride] | 68.6
CNC[C@@H](O)[C@H](c1cccc(F)c1)n1c(=O)n(C(C)C)c2cccc(F)c21 [Example 208, 4-fluoro-3-[(1S,2R)-1-(3-fluorophenyl)-2-hydroxy-3-(methylamino)-propyl]-1-isopropyl-1,3-dihydro-2H-benzimidazol-2-one hydrochloride] | 99.8

Same assay, conditions: test compound 1 μM; [3H]NE uptake, MDCK-Net6 cells; read-out: % Inhibition @ 1 μM (hNET)

inhibition at 1 µM [%] | Structure (SMILES)
25.6 | O[C@@H](CNCc1ccccc1)[C@@H](c1ccccc1)n1ccc2ccccc21 (racemic) [Example 7, (1RS,2SR)-3-(benzylamino)-1-(1H-indol-1-yl)-1-phenylpropan-2-ol hydrochloride]
96.6 | CNC[C@@H](O)[C@H](c1ccccc1)N1C(=O)C2(CCC2)c2ccccc21 [Example 107, 1′-[(1S,2R)-2-hydroxy-3-(methylamino)-1-phenylpropyl]spiro[cyclo-butane-1,3′-indol]-2′(1′H)-one hydrochloride]
99.7 | CNC[C@@H](O)[C@H](c1ccccc1)N1CCc2cc(Cl)ccc21 [Example 87, (1S,2R)-1-(5-chloro-2,3-dihydro-1H-indol-1-yl)-3-(methylamino)-1-phenylpropan-2-ol hydrochloride]
40.9 | CNC[C@@H](O)[C@H](c1ccccc1)n1ccc2ccncc21 [Example 84, (1S,2R)-3-methylamino-1-phenyl-1-(1H-pyrrolo[2,3-c]pyridin-1-yl) propan-2-ol dihydrochloride]
45.6 | CNC[C@@H](O)[C@H](c1ccccc1)n1ccc2c(C#N)cccc21 [Example 128, 1-[(1S,2R)-2-hydroxy-3-(methylamino)-1-phenylpropyl]-1H-indole-4-carbonitrile hydrochloride]
71 | NC[C@H](O)[C@@H](c1ccccc1)n1ccc2ccccc21 (racemic) [Example 17, (1RS,2SR)-3-amino-1-(1H-indol-1-yl)-1-phenylpropan-2-ol hydrochloride]
61.1 | CCNC[C@@H](O)[C@H](c1cccc(F)c1)n1ccc2ccccc21 [Example 55, (1S,2R)-3-(ethylamino)-1-(3-fluorophenyl)-1-(1H-indol-1-yl)propan-2-ol hydrochloride]
67.5 | CNC[C@@H](O)[C@H](c1cccc(F)c1)n1cc(-c2ccc(C(F)(F)F)cc2)c2ccccc21 [Example 173, (1S,2R)-1-(3-fluorophenyl)-3-(methylamino)-1-{3-[4-(trifluoromethyl)phenyl]-1H-indol-1-yl}propan-2-ol hydrochloride]
99.9 | CNC[C@@H](O)[C@H](c1cccc(F)c1)n1cc(-c2ccccc2Cl)c2ccccc21 [Example 214, (1S,2R)-1-[3-(2-chlorophenyl)-1H-indol-1-yl]-1-(3-fluorophenyl)-3-(methylamino)propan-2-ol hydrochloride]
99.7 | CNC[C@@H](O)[C@H](c1ccccc1)N1C(=O)C2(CCCCC2)c2cc(Br)ccc21 [Example 113, 5′-bromo-1′-[(1S,2R)-2-hydroxy-3-(methylamino)-1-phenylpropyl]-spiro[cyclohexane-1,3′-indol]-2′(1′H)-one hydrochloride]
91.5 | CNC[C@@H](O)[C@H](c1ccccc1)n1ccc2c(Br)cccc21 [Example 124, (1S,2R)-1-(4-bromo-1H-indol-1-yl)-3-(methylamino)-1-phenylpropan-2-ol hydrochloride]
57.4 | CNC[C@@H](O)[C@H](c1ccc(OC(F)(F)F)cc1)n1ccc2ccccc21 (racemic) [Example 39, (1RS,2SR)-1-(1H-indol-1-yl)-3-(methylamino)-1-[4-(trifluoromethoxy)phenyl]propan-2-ol hydrochloride]
44.9 | CNC[C@@H](O)[C@H](c1ccccc1)n1c(C)cc2ccccc21 (racemic) [Example 71, (1RS,2SR)-3-(methylamino)-1-(2-methyl-1H-indol-1-yl)-1-phenylpropan-2-ol hydrochloride]
13.1 | CC(C)NC[C@H](O)[C@@H](c1ccccc1)n1ccc2ccccc21 (racemic) [Example 6, (1RS,2SR)-1-(1H-indol-1-yl)-3-(isopropylamino)-1-phenylpropan-2-ol hydrochloride]
94.6 | CNC[C@@H](O)[C@H](c1ccccc1)N1C(=O)C(C)(C)c2c(F)cccc21 [Example 196, 4-fluoro-1-[(1S,2R)-2-hydroxy-3-(methylamino)-1-phenylpropyl]-3,3-dimethyl-1,3-dihydro-2H-indol-2-one hydrochloride]
86.6 | CNC[C@@H](O)[C@H](c1ccccc1)N1CCc2cccc(C)c21 [Example 66, (1S,2R)-3-(methylamino)-1-(7-methyl-2,3-dihydro-1H-indol-1-yl)-1-phenylpropan-2-ol hydrochloride]
63.9 | CNC[C@@H](O)[C@](C)(c1ccccc1)n1ccc2ccccc21 [Example 191, (2R,3S)-3-(1H-indol-1-yl)-1-(methylamino)-3-phenylbutan-2-ol hydrochloride]
96.7 | CNC[C@@H](O)[C@H](c1ccc(F)c(F)c1)n1ccc2ccccc21 [Example 140, (1S,2R)-1-(3,4-difluorophenyl)-1-(1H-indol-1-yl)-3-(methylamino)propan-2-ol hydrochloride]
79 | CNC[C@@H](O)[C@H](c1ccccc1)N1C(=O)C(C)(C)c2cc(Br)ccc21 [Example 194, 5-bromo-1-[(1S,2R)-2-hydroxy-3-(methylamino)-1-phenylpropyl]-3,3-dimethyl-1,3-dihydro-2H-indol-2-one hydrochloride]
100 | CNC[C@@H](O)[C@H](c1ccccc1)N1C(=O)C2(CCCCC2)c2cccc(F)c21 [Example 112, 7′-fluoro-1′-[(1S,2R)-2-hydroxy-3-(methylamino)-1-phenylpropyl]-spiro[cyclohexane-1,3′-indol]-2′(1′H)-one hydrochloride]
